Key:
[1] = target: Ribosomal protein S6 kinase alpha-2 (Homo sapiens) (UniProt Q15349); assay: activity of Rsk3(h) at 1.0 µM in the Eurofins Kinase panel; settings: Compound concentration 1.0 uM
[2] = target: Serine/threonine-protein kinase NLK (Homo sapiens) (UniProt Q9UBE8); assay: activity of NLK(h) at 1.0 µM in the Eurofins Kinase panel; settings: Compound concentration 1.0 uM
[3] = target: Protein-tyrosine kinase 6 (Homo sapiens) (UniProt Q13882); assay: activity of BRK(h) at 1.0 µM in the Eurofins Kinase panel; settings: Compound concentration 1.0 uM
Sequence of Protein-tyrosine kinase 6 (Homo sapiens) (Q13882 whole entry, looked up): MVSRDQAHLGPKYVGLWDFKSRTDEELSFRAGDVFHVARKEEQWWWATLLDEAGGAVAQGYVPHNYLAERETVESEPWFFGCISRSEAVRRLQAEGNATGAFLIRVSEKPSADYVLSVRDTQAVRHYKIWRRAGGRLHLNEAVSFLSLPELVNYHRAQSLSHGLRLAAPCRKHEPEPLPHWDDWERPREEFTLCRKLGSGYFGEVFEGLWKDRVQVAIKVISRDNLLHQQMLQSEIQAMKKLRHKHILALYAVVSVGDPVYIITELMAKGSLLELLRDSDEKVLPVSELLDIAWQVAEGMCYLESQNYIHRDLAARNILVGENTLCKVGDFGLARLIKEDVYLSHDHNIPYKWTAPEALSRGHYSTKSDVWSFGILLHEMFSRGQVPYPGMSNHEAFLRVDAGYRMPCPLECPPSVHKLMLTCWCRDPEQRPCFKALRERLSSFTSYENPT

[4] = target: Calcium/calmodulin-dependent protein kinase type 1G (Homo sapiens) (UniProt Q96NX5); assay: activity of CaMKIgamma(h) at 1.0 µM in the Eurofins Kinase panel; settings: Compound concentration 1.0 uM
[5] = target: Phosphatidylinositol 4-phosphate 3-kinase C2 domain-containing subunit alpha (Homo sapiens) (UniProt O00443); assay: activity of PI3KC2alpha(h) at 1.0 µM in the Eurofins Kinase panel; settings: Compound concentration 1.0 uM
[6] = target: Interferon-induced, double-stranded RNA-activated protein kinase (Homo sapiens) (UniProt P19525); assay: activity of PKR(h) at 1.0 µM in the Eurofins Kinase panel; settings: Compound concentration 1.0 uM
[7] = target: Serine/threonine-protein kinase NIM1 (Homo sapiens) (UniProt Q8IY84); assay: activity of NIM1(h) at 1.0 µM in the Eurofins Kinase panel; settings: Compound concentration 1.0 uM
Sequence of Serine/threonine-protein kinase NIM1 (Homo sapiens) (Q8IY84 whole entry): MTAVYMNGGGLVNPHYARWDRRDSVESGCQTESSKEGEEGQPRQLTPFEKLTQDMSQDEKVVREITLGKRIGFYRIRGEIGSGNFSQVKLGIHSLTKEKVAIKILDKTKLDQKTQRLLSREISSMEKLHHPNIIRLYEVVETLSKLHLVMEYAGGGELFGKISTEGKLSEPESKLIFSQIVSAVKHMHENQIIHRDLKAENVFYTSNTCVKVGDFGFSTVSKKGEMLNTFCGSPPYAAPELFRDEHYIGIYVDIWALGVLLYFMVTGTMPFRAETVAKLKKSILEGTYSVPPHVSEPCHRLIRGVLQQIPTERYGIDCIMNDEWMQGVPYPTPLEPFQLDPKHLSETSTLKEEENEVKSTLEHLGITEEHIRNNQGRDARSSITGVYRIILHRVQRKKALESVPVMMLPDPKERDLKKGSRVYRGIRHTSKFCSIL

[8] = target: Tyrosine-protein kinase Lyn (Homo sapiens) (UniProt P07948); assay: activity of Lyn(h) at 1.0 µM in the Eurofins Kinase panel; settings: Compound concentration 1.0 uM
[9] = target: Serine/threonine-protein kinase OSR1 (Homo sapiens) (UniProt O95747); assay: activity of OSR1(h) at 1.0 µM in the Eurofins Kinase panel; settings: Compound concentration 1.0 uM
[10] = target: Serine/threonine-protein kinase PAK 3 (Homo sapiens) (UniProt O75914); assay: activity of PAK3(h) at 1.0 µM in the Eurofins Kinase panel; settings: Compound concentration 1.0 uM
[11] = target: Serine/threonine-protein kinase N2 (Homo sapiens) (UniProt Q16513); assay: activity of PRK2(h) at 1.0 µM in the Eurofins Kinase panel; settings: Compound concentration 1.0 uM
[12] = target: PAS domain-containing serine/threonine-protein kinase (Homo sapiens) (UniProt Q96RG2); assay: activity of PASK(h) at 1.0 µM in the Eurofins Kinase panel; settings: Compound concentration 1.0 uM
[13] = target: PI3-kinase p110-delta/p85-alpha (Homo sapiens) (UniProt P27986+O00329); assay: activity of PI3 Kinase (p110delta/p85alpha)(h) at 1.0 µM in the Eurofins Kinase panel; format: protein-complex assay; settings: Compound concentration 1.0 uM
[14] = target: Beta-adrenergic receptor kinase 1 (Homo sapiens) (UniProt P25098); assay: activity of GRK2(h) at 1.0 µM in the Eurofins Kinase panel; settings: Compound concentration 1.0 uM
Sequence of Beta-adrenergic receptor kinase 1 (Homo sapiens) (P25098 whole entry): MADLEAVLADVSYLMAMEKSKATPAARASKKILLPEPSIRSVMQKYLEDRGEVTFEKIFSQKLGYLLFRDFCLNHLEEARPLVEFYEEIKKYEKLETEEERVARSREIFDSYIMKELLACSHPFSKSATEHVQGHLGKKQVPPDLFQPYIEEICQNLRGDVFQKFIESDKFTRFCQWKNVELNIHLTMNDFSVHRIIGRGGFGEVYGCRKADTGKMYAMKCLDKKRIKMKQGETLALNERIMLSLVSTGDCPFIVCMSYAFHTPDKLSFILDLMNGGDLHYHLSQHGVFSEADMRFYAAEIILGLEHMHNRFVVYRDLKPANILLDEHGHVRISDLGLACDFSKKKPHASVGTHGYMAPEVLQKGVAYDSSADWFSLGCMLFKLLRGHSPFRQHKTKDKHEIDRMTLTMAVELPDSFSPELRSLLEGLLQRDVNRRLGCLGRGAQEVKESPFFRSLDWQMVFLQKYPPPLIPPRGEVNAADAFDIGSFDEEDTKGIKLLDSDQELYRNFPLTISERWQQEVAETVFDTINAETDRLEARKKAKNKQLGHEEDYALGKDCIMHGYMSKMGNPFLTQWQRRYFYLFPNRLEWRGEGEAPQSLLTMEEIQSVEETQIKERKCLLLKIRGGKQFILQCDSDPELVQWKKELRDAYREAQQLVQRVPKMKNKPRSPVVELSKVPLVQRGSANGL

[15] = target: Mitogen-activated protein kinase kinase kinase 9 (Homo sapiens) (UniProt P80192); assay: activity of MLK1(h) at 1.0 µM in the Eurofins Kinase panel; settings: Compound concentration 1.0 uM
[16] = target: Inhibitor of nuclear factor kappa-B kinase subunit epsilon (Homo sapiens) (UniProt Q14164); assay: activity of IKKepsilon(h) at 1.0 µM in the Eurofins Kinase panel; settings: Compound concentration 1.0 uM
[17] = target: Focal adhesion kinase 1 (Homo sapiens) (UniProt Q05397); assay: activity of FAK(h) at 1.0 µM in the Eurofins Kinase panel; settings: Compound concentration 1.0 uM
[18] = target: cAMP-dependent protein kinase catalytic subunit alpha (Homo sapiens, UniProt P17612); assay: Promega NanoBRET (PRKACA)
[19] = target: Discoidin domain-containing receptor 2 (Homo sapiens) (UniProt Q16832); assay: activity of DDR2(h) at 1.0 µM in the Eurofins Kinase panel; settings: Compound concentration 1.0 uM
Sequence of Discoidin domain-containing receptor 2 (Homo sapiens) (Q16832 whole entry, the tested form may be a part): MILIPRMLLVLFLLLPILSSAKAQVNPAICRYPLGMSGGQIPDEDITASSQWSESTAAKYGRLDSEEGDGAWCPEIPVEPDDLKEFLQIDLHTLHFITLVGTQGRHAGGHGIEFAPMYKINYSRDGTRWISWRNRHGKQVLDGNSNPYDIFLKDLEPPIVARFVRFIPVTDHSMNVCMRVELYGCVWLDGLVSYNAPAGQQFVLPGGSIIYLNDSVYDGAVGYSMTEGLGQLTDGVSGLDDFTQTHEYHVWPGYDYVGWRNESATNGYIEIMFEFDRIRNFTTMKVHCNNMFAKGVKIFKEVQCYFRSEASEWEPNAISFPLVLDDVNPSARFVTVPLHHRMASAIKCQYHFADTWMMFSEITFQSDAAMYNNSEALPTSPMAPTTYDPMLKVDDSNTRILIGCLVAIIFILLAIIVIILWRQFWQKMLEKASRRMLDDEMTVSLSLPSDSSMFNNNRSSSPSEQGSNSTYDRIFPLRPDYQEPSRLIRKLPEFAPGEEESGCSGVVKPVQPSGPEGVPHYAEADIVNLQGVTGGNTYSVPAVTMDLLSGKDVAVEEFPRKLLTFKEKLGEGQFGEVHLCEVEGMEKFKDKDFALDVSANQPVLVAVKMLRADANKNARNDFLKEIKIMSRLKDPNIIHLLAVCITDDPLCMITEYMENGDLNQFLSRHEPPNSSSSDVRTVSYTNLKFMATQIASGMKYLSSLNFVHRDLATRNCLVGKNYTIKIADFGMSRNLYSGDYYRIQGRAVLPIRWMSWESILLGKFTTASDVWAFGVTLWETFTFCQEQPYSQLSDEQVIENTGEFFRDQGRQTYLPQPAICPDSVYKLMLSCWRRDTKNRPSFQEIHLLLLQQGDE

[20] = target: PI3K p110 beta/p85 alpha (Homo sapiens) (UniProt P27986+P42338); assay: activity of PI3 Kinase (p110beta/p85alpha)(h) at 1.0 µM in the Eurofins Kinase panel; format: protein-complex assay; settings: Compound concentration 1.0 uM
[21] = target: BDNF/NT-3 growth factors receptor (Homo sapiens) (UniProt Q16620); assay: activity of TrkB(h) at 1.0 µM in the Eurofins Kinase panel; settings: Compound concentration 1.0 uM
[22] = target: Tyrosine-protein kinase TXK (Homo sapiens) (UniProt P42681); assay: activity of Txk(h) at 1.0 µM in the Eurofins Kinase panel; settings: Compound concentration 1.0 uM
[23] = target: Tyrosine-protein kinase CSK (Homo sapiens) (UniProt P41240); assay: activity of CSK(h) at 1.0 µM in the Eurofins Kinase panel; settings: Compound concentration 1.0 uM
[24] = target: Insulin receptor-related protein (Homo sapiens) (UniProt P14616); assay: activity of IRR(h) at 1.0 µM in the Eurofins Kinase panel; settings: Compound concentration 1.0 uM
[25] = target: Protein-tyrosine kinase 2-beta (Homo sapiens) (UniProt Q14289); assay: activity of Pyk2(h) at 1.0 µM in the Eurofins Kinase panel; settings: Compound concentration 1.0 uM
Sequence of Protein-tyrosine kinase 2-beta (Homo sapiens) (Q14289 whole entry, looked up): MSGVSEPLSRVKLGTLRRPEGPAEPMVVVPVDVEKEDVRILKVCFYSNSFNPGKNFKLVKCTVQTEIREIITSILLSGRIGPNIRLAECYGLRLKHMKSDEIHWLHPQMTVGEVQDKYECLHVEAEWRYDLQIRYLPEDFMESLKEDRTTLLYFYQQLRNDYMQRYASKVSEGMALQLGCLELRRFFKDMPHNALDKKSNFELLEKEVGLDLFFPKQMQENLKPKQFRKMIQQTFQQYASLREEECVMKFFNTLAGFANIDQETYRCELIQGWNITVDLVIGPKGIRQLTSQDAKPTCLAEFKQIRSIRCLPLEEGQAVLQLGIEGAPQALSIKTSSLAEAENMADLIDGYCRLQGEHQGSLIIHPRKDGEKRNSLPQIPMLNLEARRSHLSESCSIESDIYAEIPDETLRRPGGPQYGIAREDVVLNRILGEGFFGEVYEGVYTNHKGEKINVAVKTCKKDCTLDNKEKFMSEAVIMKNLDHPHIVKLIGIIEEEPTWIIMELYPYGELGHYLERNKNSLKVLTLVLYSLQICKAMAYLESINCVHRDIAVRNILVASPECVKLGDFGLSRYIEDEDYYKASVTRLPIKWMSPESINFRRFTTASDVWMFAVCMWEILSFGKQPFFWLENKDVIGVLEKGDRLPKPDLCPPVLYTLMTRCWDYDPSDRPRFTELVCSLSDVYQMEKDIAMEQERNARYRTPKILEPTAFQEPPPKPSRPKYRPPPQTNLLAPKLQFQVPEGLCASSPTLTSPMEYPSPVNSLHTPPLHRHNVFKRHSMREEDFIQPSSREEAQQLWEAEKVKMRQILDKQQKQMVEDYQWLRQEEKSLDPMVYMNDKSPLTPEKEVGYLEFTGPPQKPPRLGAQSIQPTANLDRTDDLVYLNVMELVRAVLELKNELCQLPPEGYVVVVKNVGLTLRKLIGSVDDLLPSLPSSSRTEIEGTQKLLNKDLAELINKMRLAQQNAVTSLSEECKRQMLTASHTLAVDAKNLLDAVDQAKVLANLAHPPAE

[26] = target: Dual specificity tyrosine-phosphorylation-regulated kinase 2 (Homo sapiens) (UniProt Q92630); assay: activity of DYRK2(h) at 1.0 µM in the Eurofins Kinase panel; settings: Compound concentration 1.0 uM
[27] = target: SRSF protein kinase 3 (Homo sapiens) (UniProt Q9UPE1); assay: activity of MSSK1(h) at 1.0 µM in the Eurofins Kinase panel; settings: Compound concentration 1.0 uM
[28] = target: Mitogen-activated protein kinase 13 (Homo sapiens) (UniProt O15264); assay: activity of SAPK4(h) at 1.0 µM in the Eurofins Kinase panel; settings: Compound concentration 1.0 uM
[29] = target: cGMP-dependent protein kinase 2 (Homo sapiens) (UniProt Q13237); assay: activity of PRKG2(h) at 1.0 µM in the Eurofins Kinase panel; settings: Compound concentration 1.0 uM
[30] = target: Ephrin type-A receptor 7 (Homo sapiens) (UniProt Q15375); assay: activity of EphA7(h) at 1.0 µM in the Eurofins Kinase panel; settings: Compound concentration 1.0 uM
[31] = target: Serine/threonine-protein kinase PAK 4 (Homo sapiens) (UniProt O96013); assay: activity of PAK4(h) at 1.0 µM in the Eurofins Kinase panel; settings: Compound concentration 1.0 uM
[32] = target: Serine/threonine-protein kinase haspin (Homo sapiens) (UniProt Q8TF76); assay: activity of Haspin(h) at 1.0 µM in the Eurofins Kinase panel; settings: Compound concentration 1.0 uM
[33] = target: Glycogen synthase kinase-3 beta (Homo sapiens) (UniProt P49841); assay: activity of GSK3beta(h) at 1.0 µM in the Eurofins Kinase panel; settings: Compound concentration 1.0 uM
[34] = target: Serine/threonine-protein kinase PLK1 (Homo sapiens) (UniProt P53350); assay: activity of Plk1(h) at 1.0 µM in the Eurofins Kinase panel; settings: Compound concentration 1.0 uM
Sequence of Serine/threonine-protein kinase PLK1 (Homo sapiens) (P53350 whole entry): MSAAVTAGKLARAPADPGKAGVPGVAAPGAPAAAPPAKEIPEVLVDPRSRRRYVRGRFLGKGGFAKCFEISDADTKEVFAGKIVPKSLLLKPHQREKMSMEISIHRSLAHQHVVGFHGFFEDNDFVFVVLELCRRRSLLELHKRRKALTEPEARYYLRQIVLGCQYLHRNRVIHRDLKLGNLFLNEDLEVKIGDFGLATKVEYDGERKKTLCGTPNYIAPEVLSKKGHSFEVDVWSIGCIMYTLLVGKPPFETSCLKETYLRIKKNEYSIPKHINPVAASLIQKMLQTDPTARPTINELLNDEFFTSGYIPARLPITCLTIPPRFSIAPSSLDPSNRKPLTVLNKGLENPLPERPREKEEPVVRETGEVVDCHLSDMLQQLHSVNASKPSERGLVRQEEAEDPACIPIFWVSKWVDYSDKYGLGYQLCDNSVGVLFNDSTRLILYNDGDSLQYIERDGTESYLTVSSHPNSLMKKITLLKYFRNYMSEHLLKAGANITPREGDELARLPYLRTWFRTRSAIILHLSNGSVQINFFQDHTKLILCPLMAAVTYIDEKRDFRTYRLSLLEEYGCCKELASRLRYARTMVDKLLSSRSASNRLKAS

[35] = target: Serine/threonine-protein kinase pim-3 (Homo sapiens) (UniProt Q86V86); assay: activity of Pim-3(h) at 1.0 µM in the Eurofins Kinase panel; settings: Compound concentration 1.0 uM
[36] = target: Tyrosine-protein kinase ITK/TSK (Homo sapiens) (UniProt Q08881); assay: activity of Itk(h) at 1.0 µM in the Eurofins Kinase panel; settings: Compound concentration 1.0 uM
Sequence of Tyrosine-protein kinase ITK/TSK (Homo sapiens) (Q08881 whole entry): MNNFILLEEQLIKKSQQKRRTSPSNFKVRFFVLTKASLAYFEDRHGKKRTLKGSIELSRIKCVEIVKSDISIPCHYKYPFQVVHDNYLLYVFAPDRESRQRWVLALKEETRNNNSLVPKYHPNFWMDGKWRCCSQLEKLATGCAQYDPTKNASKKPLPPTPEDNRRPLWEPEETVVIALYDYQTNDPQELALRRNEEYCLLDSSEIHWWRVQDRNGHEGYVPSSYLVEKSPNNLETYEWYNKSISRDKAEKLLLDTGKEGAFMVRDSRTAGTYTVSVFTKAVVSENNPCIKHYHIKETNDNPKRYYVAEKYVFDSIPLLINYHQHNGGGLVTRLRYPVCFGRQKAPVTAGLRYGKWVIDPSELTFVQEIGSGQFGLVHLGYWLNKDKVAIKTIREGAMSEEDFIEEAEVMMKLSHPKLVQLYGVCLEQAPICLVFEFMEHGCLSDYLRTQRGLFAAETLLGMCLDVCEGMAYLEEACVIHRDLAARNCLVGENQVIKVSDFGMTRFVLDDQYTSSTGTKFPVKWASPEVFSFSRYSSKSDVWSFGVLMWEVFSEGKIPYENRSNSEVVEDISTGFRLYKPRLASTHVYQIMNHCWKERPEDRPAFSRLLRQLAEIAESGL

[37] = target: TGF-beta receptor type-2 (Homo sapiens) (UniProt P37173); assay: activity of TGFBR2(h) at 1.0 µM in the Eurofins Kinase panel; settings: Compound concentration 1.0 uM
[38] = target: Insulin receptor (Homo sapiens) (UniProt P06213); assay: activity of IR(h) at 1.0 µM in the Eurofins Kinase panel; settings: Compound concentration 1.0 uM
[39] = target: Receptor tyrosine-protein kinase erbB-4 (Homo sapiens) (UniProt Q15303); assay: activity of ErbB4(h) at 1.0 µM in the Eurofins Kinase panel; settings: Compound concentration 1.0 uM

An activity [1] of 112%, an activity [2] of 98% and an activity [3] of 83% were found for `Cc1cc2c(-c3ccc(NC(=O)[C@H](N)CC(C)(C)C)cc3C)ccnc2[nH]1` in this work. For the same molecule, the activity [4] was 110%, the activity [5] was 102% and the activity [6] was 85%. The activity [7] was 112%, the activity [8] was 80% and the activity [9] was 80%. For the same molecule, the activity [10] was 89%, the activity [11] was 92% and the activity [12] was 72%. The activity [13] was 110%, the activity [14] was 95% and the activity [15] was 103%. For the same molecule, the activity [16] was 87%, the activity [17] was 96% and the IC50 [18] was > 10 µM (not active). The activity [19] was 85%, the activity [20] was 102% and the activity [21] was 84%. For the same molecule, the activity [22] was 110%, the activity [23] was 92% and the activity [24] was 110%. The activity [25] was 76%, the activity [26] was 101% and the activity [27] was 134%. It also gave an activity [28] of 94%, an activity [29] of 110% and an activity [30] of 114%. It also gave an activity [31] of 83%, an activity [32] of 140% and an activity [33] of 93%. The activity [34] was 111%, the activity [35] was 103% and the activity [36] was 86%. It also gave an activity [37] of 96%, an activity [38] of 94% and an activity [39] of 94%.

Reference: ChEMBL document CHEMBL5723584 (2023)
